Reference: article PMC6668147, “Ancient role of vasopressin/oxytocin-type neuropeptides as regulators of feeding revealed in an echinoderm” (BMC Biology, 2019)
Entries after “also recorded” stand apart in the source; their conditions may differ. Like-named read-outs stand apart in the source and are kept apart here.

Tests used:
[1] = system: A. rubens VP/OT-type receptor; experiment: Ca2+-induced luminescence in CHO-K1/G5A cells expressing the A. rubens VP/OT-type receptor and Gα16; assay type: cell-based, Asterias rubens; conditions: 10^−4 M; Wilcoxon signed-rank test vs basal media; n = 9
From the text: A pBluescript SKII (+) vector containing the A. rubens VP/OT-type receptor cDNA as an insert (see above) was used as a template to amplify by PCR the open reading frame of the VP/OT-type receptor. To accomplish this, the oligonucleotides 5′-ggatccCACCATGACGCCCTC-3′ (upstream) and 5′-cccgggCTACATGTGAGCGGAAGCA-3′ (downstream) were used as primers and the PCR product was subcloned into the eukaryotic expression vector pcDNA 3.1+, which had been cut with the restriction enzymes BamHI and […]. For the upstream primer, a partial Kozak translation initiation sequence (CACC) was introduced before the start codon to optimise the initiation of translation.
For this assay, Chinese hamster ovary (CHO-K1) cells stably expressing the Ca^2+-sensitive bioluminescent GFP-aequorin fusion protein—G5A (CHO-K1/G5A cells) are co-transfected with plasmids containing a G-protein coupled receptor cDNA insert and plasmids containing an insert encoding the promiscuous G-protein Gα16. If a candidate ligand activates the expressed receptor, the promiscuous Gα16 protein triggers the activation of the IP3 signalling pathway, causing an increase in intracellular Ca^2+ and luminescence. […] Asterotocin at concentrations ranging from 10^−4 to 10^−12 M (n = 3) was pipetted into the wells of clear-bottomed 96-well plates (Sigma-Aldrich), then a FLUOstar Omega Plate Reader (BMG LABTECH) was used to inject a fixed amount of transfected CHO-K1 cells into each well sequentially, and luminescence was measured for a 35-s period after injection. Luminescence measurements were normalised to the maximum response obtained in each experiment (100%) and the response obtained with the vehicle media (0%). […] The half maximal effective concentration (EC50) was calculated from the dose-response curve in Prism 6.0c. […] A Wilcoxon signed-rank test was performed to compare luminescence of cells exposed to asterotocin, vasopressin, oxytocin and NGFFYamide (at 10^−4 M) with luminescence of cells in basal media (control).

mammals [2] = conditions: cited from earlier work
From the text: Physiological processes and behaviour are controlled and regulated by a huge variety of neuronally secreted peptide signalling molecules (neuropeptides), which typically exert their effects on target cells by binding to cognate G-protein coupled receptors (GPCRs). Amongst the most intensely studied neuropeptides are vasopressin (VP) and oxytocin (OT). VP and OT are structurally related neuropeptides that were originally discovered based on their peripheral actions as pituitary hormones in mammals. VP is a cyclic and amidated nonapeptide (CYFQNCPRG-NH2; with a disulphide bridge betwee ...

mammals [3] = conditions: cited from earlier work; remark: listed apart in the source
From the text: Our discovery that asterotocin has such striking feeding-related effects in starfish provides a basis to examine if VP/OT-type neuropeptides are likewise involved in the regulation of feeding-associated processes in other taxa. Currently, little is known about the physiological roles of VP/OT-type neuropeptides in other echinoderms. […] This effect of echinotocin as a muscle contractant is consistent with the myoexcitatory eff ...

A. rubens [4] = conditions: cited from earlier work
From the text: Starfish feed by firstly prying apart the bivalve shells of prey (e.g. mussels) with their tube feet and then […] cardiac stomach out of their mouth and over the exposed digestible soft tissues. In order for the cardiac stomach to be everted, it must be in a relaxed state, and therefore, neuropeptides that cause cardiac stomach relaxation in vitro are potential mediators of eversion in vivo.

A. rubens [5] = experiment: Righting behaviour following 4-week starvation; assay type: in vivo, Asterias rubens
Description: To examine the specificity of the effects of asterotocin on starfish righting behaviour, an experiment was performed where the righting time of starfish (5.5–9.6 cm in diameter; starved for 4 weeks prior to testing) was measured before injection (n = 60; pooled from the three treatment groups) and after injection with 5 μl 10^−3 M asterotocin (n = 20) or 5 μl 10^−3 M S2 (n = 20) or 5 μl distilled water (n = 20). The time taken to right in seconds as well as the percentage difference between righting with and without injection was calculated. The percentage time difference between righting with and without injection in water-injected, asterotocin-injected and S2-injected animals was determined and plotted as a separated box and whiskers graph in Prism 6 (GraphPad 6). The effect of neuropeptides on righting behaviour was analysed statistically using the Mann-Whitney U test or a one-way ANOVA test with a post hoc Dunnett’s multiple comparisons test.

A. rubens [6] = experiment: In vivo cardiac stomach eversion, dose dependence; parameters: species or system Asterias rubens; conditions: 10 μl of 10^−3 M S2 into perivisceral coelom; n = 5
Description: During feeding in A. rubens, the cardiac stomach is everted out of the mouth over the digestible soft tissue of prey (e.g. mussels), and to accomplish this, the cardiac stomach must be relaxed. […] First, a pilot experiment was performed using 30 starfish (diameter 6.4–7.5 cm) that had been starved for 1 week to normalise their physiological status. Then animals were injected with different doses of asterotocin (10 μl of 10^−6–10^−3 M; n = 5 for each dose) or with 10 μl of water (negative control; n = 5) or with 10 μl of 10^−3 M S2 (positive control; n = 5). The animals were injected at a site located in the aboral body wall of an arm proximal to the junction with the central disc and adjacent to the madreporite. Care was taken to ensure that the tip of a Hamilton syringe used for injections was pushed through the body wall into the perivisceral coelom but not too deep so as to avoid injecting into the digestive organs. The doses of asterotocin injected were informed by our analysis of the volume of the perivisceral coelomic fluid in A. rubens. […] Following injection, the starfish were placed in a glass vessel containing seawater so that the mouth of the animal could be observed from below.

A. rubens [7] = experiment: Body posture / arm flexion after injection; assay type: in vivo, Asterias rubens; conditions: S2, compared with asterotocin
[8] = system: cardiac stomach preparations from A. rubens; experiment: Relaxation of in vitro cardiac stomach preparations; parameters: species or system Asterias rubens; conditions: 10^−7 M, KCl pre-contraction
Description: To investigate if asterotocin affects muscle contractility in A. rubens, synthetic asterotocin (custom synthesised by PPR Ltd., Fareham, Hampshire, UK) was tested on three in vitro preparations: the cardiac stomach, apical muscle and tube feet. These three preparations have been used to examine the effects of other neuropeptides, and the methods employed have been described in detail previously. […] Therefore, the effects of asterotocin on cardiac stomach and apical muscle preparations were examined in more detail.
Cardiac stomach preparations from 16 starfish (8–13.5 cm in diameter) were incubated at 11 °C in an aerated organ bath containing artificial seawater with 3 × 10^−2 M added KCl. This induces sustained contraction of the cardiac stomach, which facilitates recording of the effects of neuropeptides that act as muscle relaxants. The contractile state of preparations was monitored using a high-grade isotonic transducer (model 60-3001; Harvard Apparatus, Cambridge, UK) connected to a Goerz SE 120 chart recorder (Recorderlab, Sutton, Surrey, UK) or using a high-grade isotonic transducer (MLT0015; ADInstruments Ltd., Oxford, UK) connected to data acquisition hardware (PowerLab 2/26, ADInstruments Ltd.) via a bridge amplifier (FE221 Bridge Amp, ADInstruments Ltd.). The output from the PowerLab was recorded using LabChart (v8.0.7) software installed on a laptop computer (Lenovo E540, Windows 7 Professional). To obtain representative images of the effects of asterotocin, traces were exported from LabChart into Adobe Photoshop and the function ‘Select and Mask’ was utilised to remove the background grid pattern.
The percentage relaxation at each concentration was calculated relative to the maximal relaxing effect produced by asterotocin in each preparation. […] For these experiments, the effect of 10^−7 M S2 was defined as 100%, and the effect of 10^−7 M asterotocin was calculated as a percentage of the effect of 10^−7 M S2. The relaxing effects of asterotocin and S2 on cardiac stomach preparations were analysed statistically using the Mann-Whitney U test.

[9] = system: cardiac stomach preparations from A. rubens; conditions: in vitro; cited from earlier work
Description: Therefore, it was of interest here to investigate the effects of asterotocin on muscle preparations from A. rubens. […] The percentage relaxation at each concentration was calculated relative to the maximal relaxing effect produced by asterotocin in each preparation. To enable the assessment of the magnitude of the relaxing effect of asterotocin on cardiac stomach, experiments were performed to compare the effect asterotocin with the effect of the neuropeptide SALMFamide-2 (S2; […]-NH2), which has been shown previously to cause relax ...

insects = conditions: cited from earlier work
From the text: Thus, the evolutionary origin of at least 30 neuropeptide families (including VP/OT-type) can be traced back to the bilaterian common ancestor of deuterostomes (vertebrates and invertebrate chordates, hemichordates, echinoderms) and protostomes (e.g. arthropods, nematodes, molluscs, annelids). Definitive evidence of the antiquity of VP/OT-type neuropeptides was first obtained with the purification and sequencing of VP/OT-type neuropeptides from insect and molluscan species [[8], ...

octopus rectum = conditions: in vitro; cited from earlier work
From the text: What about in the protostome branch of the Bilateria? […] In the cephalopod mollusc Octopus vulgaris, the VP/OT-type signalling system has been characterised in detail and comprises two VP/OT-type neuropeptides, octopressin (OP) and cephalotocin (CT), and three cognate receptors (OPR, CTR1, CTR2). Furthermore, OP is expressed in the regions of the octopus nervous system involved in the control o ...

Substance: CYFQNCPRG-NH2 (disulfide) [vasopressin, human vasopressin; cyclic amidated nonapeptide (…-NH2)]
- receptor activation at highest concentration tested, in words [1]: did not cause significant receptor activation; also recorded: not significantly higher than the basal media control
- blood pressure, in words (mammals [2]): increases blood pressure
- diuresis, in words (mammals [2]): acts as an antidiuretic

Substance: CYIQNCPLG-NH2 (disulfide) [oxytocin, human oxytocin (…-NH2)]
- receptor activation at highest concentration tested, in words [1]: did not cause significant receptor activation; also recorded: not significantly higher than the basal media control
- uterine contraction and lactation, in words (mammals [2]): causes uterine contraction and lactation
- effect on feeding, in words (mammals [3]): inhibits feeding

Substance: NGFFYamide
- receptor activation at highest concentration tested, in words [1]: did not cause significant receptor activation; also recorded: not significantly higher than the basal media control

Substance: SGPYSFNSGLTF-NH2 [S2, SALMFamide neuropeptide S2 (…-NH2)]
- cardiac stomach eversion, in words (earlier work) (A. rubens [4]; 100 μl of 10^−3 M into perivisceral coelom): triggers cardiac stomach eversion
- cardiac stomach eversion, in words (earlier work) (A. rubens [4]; injected in vivo): induces cardiac stomach eversion when injected in vivo
- significance of righting time vs water-injected, in words (A. rubens [5]; 5 μl of 10^−3 M S2, n = 20): not significantly different
- mean righting time (A. rubens [5]; 5 μl of 10^−3 M, mean ± SEM, n = 20, water 341 ± 59 s, non-injected 345 ± 35 s): 312 ± 40 s
- mean percentage righting time difference with vs without injection (A. rubens [5]; 5 μl of 10^−3 M, n = 20, water − 1.8 ± 13%): 15 ± 12%
- cardiac stomach eversion, in words (A. rubens [6]): cardiac stomach eversion was not observed; also recorded: stomach eversion was not observed in any of the animals
- posture change, in words (A. rubens [7]): does not induce the changes in posture
- relaxing effect, S2 effect defined as 100% ([8]; replicate 1): 100%
- relaxing effect, S2 effect defined as 100% ([8]; replicate 2): 100%
- relaxing effect, S2 effect defined as 100% ([8]; replicate 3): 100%
- relaxing effect, S2 effect defined as 100% ([8]; replicate 4): 100%
- relaxing effect, S2 effect defined as 100% ([8]; replicate 5): 100%
- effect on cardiac stomach preparations, in words [9]: acts as a relaxant of cardiac stomach preparations; also recorded: cause relaxation of A. rubens cardiac stomach preparations in vitro

Substance: inotocin
- role in urine production, in words (insects): VP-like role in regulating urine production

Substance: octopressin
- effect on rectum, in words (octopus rectum): myoexcitatory effects on in vitro preparations of the octopus rectum
